Data published in patent US20250074911A1, “MACROCYCLIC BTK INHIBITORS” (Crossfire Oncology Holding B.V., priority 2021, published 2025).

Experiments:
BTK C481S = BTK C481S (Homo sapiens (Human), UniProt Q06187, C481S); assay: Binding kinetics measurements (Surface Plasmon Resonance) on BTK C481S; conditions: for Tau (h) BTK C418S (Act): target residence time for BTK C481S, SPR; for Kd: binding affinity by Surface Plasmon Resonance (SPR)
Outline: (§1)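 Kinetic constants came from double-referenced SPR sensorgrams of five ascending compound injections (3.16-316 nM, single cycle) over streptavidin-captured enzyme. Flow was 30 μl/min at 22° C with 1% DMSO. Duplicate ka, kd and KD were geometrically averaged.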

BTK T316A = BTK T316A (Homo sapiens (Human), UniProt Q06187, T316A); assay: Binding kinetics measurements (Surface Plasmon Resonance) on BTK T316A; conditions: for Kd: binding affinity by Surface Plasmon Resonance (SPR); for Tau (h) BTK T316A (Act): target residence time, SPR
Chain of BTK T316A (Q06187 whole entry T316A): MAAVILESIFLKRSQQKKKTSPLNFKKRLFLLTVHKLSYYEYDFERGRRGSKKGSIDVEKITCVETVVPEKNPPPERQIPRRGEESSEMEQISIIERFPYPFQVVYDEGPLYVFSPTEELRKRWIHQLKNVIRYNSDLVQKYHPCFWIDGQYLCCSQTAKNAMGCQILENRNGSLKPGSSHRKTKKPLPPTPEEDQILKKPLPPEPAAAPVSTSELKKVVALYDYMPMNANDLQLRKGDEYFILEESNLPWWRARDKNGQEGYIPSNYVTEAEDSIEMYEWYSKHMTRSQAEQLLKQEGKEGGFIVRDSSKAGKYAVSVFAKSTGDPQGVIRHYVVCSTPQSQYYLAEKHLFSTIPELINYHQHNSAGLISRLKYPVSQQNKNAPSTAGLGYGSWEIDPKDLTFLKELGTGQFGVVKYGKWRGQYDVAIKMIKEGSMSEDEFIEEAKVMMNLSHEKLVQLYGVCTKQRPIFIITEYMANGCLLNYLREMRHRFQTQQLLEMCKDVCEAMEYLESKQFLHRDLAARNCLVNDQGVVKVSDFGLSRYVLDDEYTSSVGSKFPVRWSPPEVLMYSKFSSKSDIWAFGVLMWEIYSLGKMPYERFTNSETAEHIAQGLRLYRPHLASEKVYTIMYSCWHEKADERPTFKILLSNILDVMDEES
Outline: as §1

BTK T474S = BTK T474S (Homo sapiens (Human), UniProt Q06187, T474S); assay: Binding kinetics measurements (Surface Plasmon Resonance) on BTK T474S; conditions: for residence time: SPR binding kinetics, BTK T474S, read-out: Tau (h) BTK T474S (Act), target residence time (converted); for Kd: binding affinity by Surface Plasmon Resonance (SPR)
Chain of BTK T474S (Q06187 whole entry T474S): as the sequence (Q06187 whole entry T316A) above, with A316T, T474S counted along it
Outline: as §1

Chain of BTK C481S (Q06187 whole entry C481S): as the sequence (Q06187 whole entry T316A) above, with A316T, C481S counted along it

Structure (SMILES) | Tau (h) BTK C418S (Act) (BTK C481S) [h] | Kd (BTK C481S) [nM] | Kd (BTK T316A) [nM] | Tau (h) BTK T316A (Act) (BTK T316A) [h] | residence time (BTK T474S) [h] | Kd (BTK T474S) [nM]
N#Cc1ccnc(NC(=O)c2ccc(-c3nc4n5c(cnc(N)c35)/C=C/CCOCCC(=O)N[C@@H]3CC[C@@H]4C3)cc2)c1 [Example 201] | 1.91 |  |  |  |  | 
C[C@@H]1CC(=O)N[C@@H]2CCC[C@H](C2)n2nc(-c3ccc(C(=O)Nc4cc(C(F)(F)F)ccn4)cc3)c3c(N)ncc(c32)/C=C/CCN1 [Example 45] | 3.17 | < 5 | < 5 | 6.06 | 2.94 | < 3
N#Cc1ccnc(NC(=O)c2ccc(-c3nc4n5c(cnc(N)c35)/C=C/CCCCCC(=O)N[C@@H]3CC[C@@H]4C3)cc2)c1 [Example 204] |  | < 5 |  |  |  | 

Other lines, results leading:

Tau (h) BTK C418S (Act) (BTK C481S) [h] | Kd (BTK C481S) [nM] | Kd (BTK T316A) [nM] | Tau (h) BTK T316A (Act) (BTK T316A) [h] | residence time (BTK T474S) [h] | Kd (BTK T474S) [nM] | Structure (SMILES)
2.43 | < 5 |  |  |  |  | N#Cc1ccnc(NC(=O)c2ccc(-c3nc4n5c(cnc(N)c35)/C=C/CCCCCC(=O)N[C@@H]3CCC[C@@H]4C3)cc2)c1 [Example 184]
12.17 | < 5 | < 5 | 3.55 | 2.64 | < 3 | Nc1ncc2c3c1c(-c1ccc(C(=O)Nc4cc(C(F)(F)F)ccn4)cc1)nn3[C@@H]1CCC[C@H](C1)NC(=O)CCOC/C=C/2 [Example 25]
